In patent US20260258032A1, “TYROSINE KINASE 2 INHIBITORS AND USES THEREOF” (BIOGEN MA INC., priority 2022, published 2026) one finds IC50 data, which are given here for 18 compounds.

In one experiment the target is T1, JH2 domain of human Tyk2 (Homo sapiens, UniProt P29597).
T1 construct: 10×His-tagged TYK2 JH2 domain (amino acid 575-876)
Nature of the experiment: JH2 biochemical assay (TR-FRET probe displacement). Type of experiment: binding. The following applies: JH2 biochemical assay. The method in brief:
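10×His-tagged human TYK2 JH2 (aa 575-876, 2 nM) incubated 60 min with 2 nM fluorescent probe, 0.1 nM Tb anti-His antibody and compound (10-point 3-fold series from […] top). TR-FRET 520/495 nm ratio, falling with probe displacement, normalized and fitted to a 4-parameter logistic for IC50.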
Background: In TR-FRET formats the signal depends on donor and acceptor labels being close together.

Experiment [1] concerns Tyk2 kinase activity on STAT4. Kind of experiment: pSTAT4 cell assay (MSD, NK92 cells). It counts as cell-based. The following applies: compounds 1 hr, stimulated 15 minutes. In a few lines:
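NK92, serum-starved; cpd 1 hr, 10-pt 4-fold from 10 μM; IL2 30 ng/mL 15 min; lyse; MSD with anti-STAT4 Abs; IC50 by 4-PL fit.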

Structures are written as SMILES. Structures can show the parent of a compound that is named as a salt.

T1 sequence (P29597 575-876): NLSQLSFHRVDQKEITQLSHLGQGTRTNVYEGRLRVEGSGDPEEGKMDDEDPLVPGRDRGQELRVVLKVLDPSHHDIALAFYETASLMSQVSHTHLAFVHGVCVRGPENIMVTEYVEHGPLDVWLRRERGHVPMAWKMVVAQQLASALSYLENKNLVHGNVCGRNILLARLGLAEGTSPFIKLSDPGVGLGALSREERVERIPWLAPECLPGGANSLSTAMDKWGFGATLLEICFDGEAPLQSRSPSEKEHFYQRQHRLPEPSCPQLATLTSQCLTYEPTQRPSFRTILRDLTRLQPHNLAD

Take `CC(=O)Nc1cc2c(cn1)C1(CC1)CN2c1cc(C)nc(-c2cnn(C)c2)n1` [Example 245, N-(1′-(6-methyl-2-(1-methyl-1H-pyrazol-4-yl)pyrimidin-4-yl)-1′,2′-dihydrospiro[cyclopropane-1,3′-pyrrolo[3,2-c]pyridin]-6′-yl)acetamide trifluoroacetate]: the figures for the IC50 (at JH2 domain of human Tyk2; in experiment [1]) were 10 to 100 nM and 100 to 1000 nM, respectively.
Take `CCn1cc(-c2nc(C)cc(N3CC4(CC4)c4cnc(NC(C)=O)cc43)n2)cn1` [Example 247, N-(1′-(2-(1-ethyl-1H-pyrazol-4-yl)-6-methylpyrimidin-4-yl)-1′,2′-dihydrospiro[cyclopropane-1,3′-pyrrolo[3,2-c]pyridin]-6′-yl)acetamide]: the IC50 is no more than 10 nM at JH2 domain of human Tyk2 and 100 to 1000 nM in experiment [1].
Take `CC(=O)Nc1cc2c(cn1)C1(CC1)CN2c1cc(C)nc(-c2cnn(C)c2C(F)F)n1` [Example 248, N-(1′-(2-(5-(difluoromethyl)-1-methyl-1H-pyrazol-4-yl)-6-methylpyrimidin-4-yl)-1′,2′-dihydrospiro[cyclopropane-1,3′-pyrrolo[3,2-c]pyridin]-6′-yl)acetamide]: the IC50 is 10 to 100 nM at JH2 domain of human Tyk2 and no less than 1000 nM in experiment [1].
Regarding `CC(=O)Nc1cc2c(cn1)C1(CC1)CN2c1cc(C)nc(-c2cnn(C(C)C)c2)n1` [Example 249, N-(1′-(2-(1-isopropyl-1H-pyrazol-4-yl)-6-methylpyrimidin-4-yl)-1′,2′-dihydrospiro[cyclopropane-1,3′-pyrrolo[3,2-c]pyridin]-6′-yl)acetamide], the IC50 at JH2 domain of human Tyk2 was 10 to 100 nM; in experiment [1] it was no less than 1000 nM.
As for `CC(=O)Nc1cc2c(cn1)C1(CC1)CN2c1cc(C)nc(-c2cnn(C3CC3)c2)n1` [Example 250, N-(1′-(2-(1-cyclopropyl-1H-pyrazol-4-yl)-6-methylpyrimidin-4-yl)-1′,2′-dihydrospiro[cyclopropane-1,3′-pyrrolo[3,2-c]pyridin]-6′-yl)acetamide], the IC50 at JH2 domain of human Tyk2 was 10 to 100 nM; in experiment [1], no less than 1000 nM.
For `CC(=O)Nc1cc2c(cn1)C1(CC1)CN2c1cc(C)nc(-c2cnn(C3COC3)c2)n1` [Example 251, N-(1′-(6-methyl-2-(1-(oxetan-3-yl)-1H-pyrazol-4-yl)pyrimidin-4-yl)-1′,2′-dihydrospiro[cyclopropane-1,3′-pyrrolo[3,2-c]pyridin]-6′-yl)acetamide trifluoroacetate], the results for the IC50 (at JH2 domain of human Tyk2; in experiment [1]) were 10 to 100 nM and no less than 1000 nM, respectively.
Regarding `CC(=O)Nc1cc2c(cn1)C1(CC1)CN2c1cc(C)nc(-c2cnn(CC3CC3)c2)n1` [Example 253, N-(1′-(2-(1-(cyclopropylmethyl)-1H-pyrazol-4-yl)-6-methylpyrimidin-4-yl)-1′,2′-dihydrospiro[cyclopropane-1,3′-pyrrolo[3,2-c]pyridin]-6′-yl)acetamide trifluoroacetate], the IC50 on JH2 domain of human Tyk2 was 10 to 100 nM; in experiment [1], no less than 1000 nM.
Turning to `COc1ccc(-c2nc(C)cc(N3CC4(CC4)c4cnc(NC(C)=O)cc43)n2)cn1` [Example 254, N-(1′-(2-(6-methoxypyridin-3-yl)-6-methylpyrimidin-4-yl)-1′,2′-dihydrospiro[cyclopropane-1,3′-pyrrolo[3,2-c]pyridin]-6′-yl)acetamide trifluoroacetate], the concentration for half-maximal inhibition (IC50) at JH2 domain of human Tyk2 is 100 to 1000 nM; in experiment [1] it was no less than 1000 nM.
As for `CC(=O)Nc1cc2c(cn1)C1(CC1)CN2c1cc(C)cc(-c2ccn(C)n2)n1` [Example 256, N-(1′-(4-methyl-6-(1-methyl-1H-pyrazol-3-yl)pyridin-2-yl)-1′,2′-dihydrospiro[cyclopropane-1,3′-pyrrolo[3,2-c]pyridin]-6′-yl)acetamide trifluoroacetate], the values for the IC50 (at JH2 domain of human Tyk2; in experiment [1]) were 10 to 100 nM and no less than 1000 nM, respectively.
On to `CC(=O)Nc1cc2c(cn1)C1(CC1)CN2c1cc(C)cc(-c2cnn(C)c2)n1` [Example 257, N-(1′-(4-methyl-6-(1-methyl-1H-pyrazol-4-yl)pyridin-2-yl)-1′,2′-dihydrospiro[cyclopropane-1,3′-pyrrolo[3,2-c]pyridin]-6′-yl)acetamide trifluoroacetate], for which the IC50 at JH2 domain of human Tyk2 was no more than 10 nM; in experiment [1], 100 to 1000 nM.
In the case of `CC(=O)Nc1cc2c(cn1)C1(CC1)CN2c1cc(C)cc(-c2cnn(S(C)(=O)=O)c2)n1` [Example 258, N-(1′-(4-methyl-6-(1-(methylsulfonyl)-1H-pyrazol-4-yl)pyridin-2-yl)-1′,2′-dihydrospiro[cyclopropane-1,3′-pyrrolo[3,2-c]pyridin]-6′-yl)acetamide trifluoroacetate], the IC50 at JH2 domain of human Tyk2 fell in the range of 10 to 100 nM; in experiment [1], 100 to 1000 nM.
In the case of `CC(=O)Nc1cc2c(cn1)C1(CC1)CN2c1cc(C)cc(-c2cnn(C(F)F)c2)n1` [Example 259, N-(1′-(6-(1-(difluoromethyl)-1H-pyrazol-4-yl)-4-methylpyridin-2-yl)-1′,2′-dihydrospiro[cyclopropane-1,3′-pyrrolo[3,2-c]pyridin]-6′-yl)acetamide trifluoroacetate], the IC50 at JH2 domain of human Tyk2 is no more than 10 nM; in experiment [1], 100 to 1000 nM.
`CCn1cc(-c2cc(C)cc(N3CC4(CC4)c4cnc(NC(C)=O)cc43)n2)cn1` [Example 260, N-(1′-(6-(1-ethyl-1H-pyrazol-4-yl)-4-methylpyridin-2-yl)-1′,2′-dihydrospiro[cyclopropane-1,3′-pyrrolo[3,2-c]pyridin]-6′-yl)acetamide trifluoroacetate]: the IC50 at JH2 domain of human Tyk2 is 10 to 100 nM; in experiment [1], no less than 1000 nM.
On to `CC(=O)Nc1cc2c(cn1)C1(CC1)CN2c1cc(C)cc(-c2cnn(C(C)C)c2)n1` [Example 263, N-(1′-(6-(1-isopropyl-1H-pyrazol-4-yl)-4-methylpyridin-2-yl)-1′,2′-dihydrospiro[cyclopropane-1,3′-pyrrolo[3,2-c]pyridin]-6′-yl)acetamide trifluoroacetate], for which the concentration for half-maximal inhibition (IC50) at JH2 domain of human Tyk2 is 10 to 100 nM; in experiment [1] it was no less than 1000 nM.
Consider `CC(=O)Nc1cc2c(cn1)C1(CC1)CN2c1cc(C)cc(-c2cnn(C3CC3)c2)n1` [Example 264, N-(1′-(6-(1-cyclopropyl-1H-pyrazol-4-yl)-4-methylpyridin-2-yl)-1′,2′-dihydrospiro[cyclopropane-1,3′-pyrrolo[3,2-c]pyridin]-6′-yl)acetamide trifluoroacetate], for which the IC50 at JH2 domain of human Tyk2 was 10 to 100 nM; in experiment [1], no less than 1000 nM.
Turning to `CC(=O)Nc1cc2c(cn1)C1(CC1)CN2c1cc(N)nc(C(C)(F)F)n1` [Example 273, N-(1′-(6-amino-2-(1,1-difluoroethyl)pyrimidin-4-yl)-1′,2′-dihydrospiro[cyclopropane-1,3′-pyrrolo[3,2-c]pyridin]-6′-yl)acetamide trifluoroacetate], the IC50 at JH2 domain of human Tyk2 was no more than 10 nM; in experiment [1], 10 to 100 nM.
With `CC(=O)Nc1cc2c(cn1)C1(CC1)CN2c1cc(C)cc(N2CC3CCN(C)C3C2)n1` (stereo not drawn) [Example 277, N-(1′-(4-methyl-6-(1-methylhexahydropyrrolo[3,4-b]pyrrol-5(1H)-yl)pyridin-2-yl)-1′,2′-dihydrospiro[cyclopropane-1,3′-pyrrolo[3,2-c]pyridin]-6′-yl)acetamide trifluoroacetate], the IC50 on JH2 domain of human Tyk2 is 100 to 1000 nM; in experiment [1] it was no less than 1000 nM.
For `Cc1cc(N2CC3(CC3)c3cnc(NC(=O)N(C)C)cc32)nc(C(C)(F)F)n1` [Example 278, 3-(1′-(2-(1,1-difluoroethyl)-6-methylpyrimidin-4-yl)-1′,2′-dihydrospiro[cyclopropane-1,3′-pyrrolo[3,2-c]pyridin]-6′-yl)-1,1-dimethylurea], the IC50 at JH2 domain of human Tyk2 was 100 to 1000 nM; in experiment [1], no less than 1000 nM.

As a reminder, the IC50 is the concentration that gives 50% inhibition.
